{
  "source": "patent US9877962B2",
  "about": "“Piperazinyl derivatives for the treatment of cancer” (priority 2011, dated 2018)",
  "key": {"NCI 60 cell lines": {"test_system": "NCI 60 cell lines", "experiment": "NCI 60 tumor cell line panel (SRB)", "assay_type": "cell-based, human", "details": "concentration of 10 μM, 48 h, FIG. 3", "protocol": "Compound I-43b has been tested in the NCI 60 cell line panel. This screen utilizes 60 different human tumor cell lines, representing leukemia, melanoma, lung cancer, colon cancer, CNS cancer, ovarian cancer, breast cancer, prostate cancer and renal cancer.\nThe 60 human tumor cell lines of the cancer screening panel are grown in RPMI 1640 medium containing 5% fetal bovine serum and 2 mM L-glutamine. For a typical screening experiment, cells are inoculated into 96 well microtiter plates in 100 μL at plating densities ranging from 5,000 to 40,000 cells/well depending on the doubling time of individual cell lines. […]\nFollowing drug addition, the plates are incubated for an additional 48 h at 37° C., 5% CO2, 95% air, and 100% relative humidity. […] Bound stain is subsequently solubilized with 10 mM trizma base, and the absorbance is read on an automated plate reader at a wavelength of 515 nm. […] Using the seven absorbance measurements [time zero (Tz), control growth (C), and test growth in the presence of drug at the five concentration levels (Ti)], the percentage growth is calculated at each of the drug concentrations levels. Percentage growth inhibition is calculated as: [(Ti−Tz)/(C−Tz)]×100 for concentrations for which Ti>/=Tz [(Ti−Tz)/Tz]×100 for concentrations for which Ti<Tz.\nThree dose response parameters are calculated for each experimental agent. […]"}, "[1]": {"test_system": "3 human cancer cell lines established from Head & Neck (HNSCC)", "experiment": "MTT cell proliferation assay on HNSCC cell lines", "assay_type": "cell-based", "details": "MTT assay after 72 hours of treatment, FIG. 2", "protocol": "(§1) Compound I-43b has been tested in 3 human cancer cell lines established from Head & Neck (HNSCC) and in 4 human cancer cell lines established hepatocarcinoma (HCC). […] Cell proliferation has been evaluated using the MTT assay after 72 hours of treatment."}, "[2]": {"test_system": "4 human cancer cell lines established hepatocarcinoma (HCC)", "experiment": "MTT cell proliferation assay on HCC cell lines", "assay_type": "cell-based", "details": "MTT assay after 72 hours of treatment, FIG. 2", "protocol": "as §1"}},
  "data": [
    {"smiles": "Cc1cc(Oc2ccccc2)ccc1N(C(=O)CCl)[C@H](C(=O)N1CCN[C@@H](C)C1)c1cccs1", "note": "(single isomer, unassigned) [Example I-43b]", "values": [
      {"measurement": "growth inhibition of NCI 60 tumor cell lines, single dose screen", "setting": "NCI 60 cell lines", "value": "selective growth inhibition on all these tumor cell lines"},
      {"measurement": "cell proliferation inhibition, HNSCC cell lines", "setting": "[1]", "value": "inhibited cell proliferation in a concentration dependent manner"},
      {"measurement": "cell proliferation inhibition, HCC cell lines", "setting": "[2]", "value": "inhibited cell proliferation in a concentration dependent manner"}
    ]}
  ]
}
